# Legend:
# [1] = tested on: Human primary melanocytes; test: Melanin content assay (melanin synthesis inhibition); type: cell-based; settings: Melanocyte, 72 hours treatment
# Protocol: Human primary melanocytes (Cascade Biologics, now ThermoFisher Scientific) were grown in melanocytes growth medium (MGM) with human melanocyte growth supplement (both media components from ThermoFisher Scientific). Melanocytes were seeded at 5×10^4 cells/well in 24 well-plates and incubated in a humidified incubator at 37° C. with 5% CO2 atmosphere. After 24 hours of incubation, cell cultures were treated with the GAP amino acids or 12- hydroxystearic acid, alone or in combination. The vehicle control consisted of cells treated with the vehicle GAP (0.002 mM NaOH), and/or additional test reagent vehicle, . After treatment, cells were again incubated for 72 hours in a humidified incubator at 37° C. with 5% CO2 atmosphere. At the end of the 72 hour incubation, the culture medium was replaced with 120 uL/well of melanin content assay reagent (10% DMSO in 1M sodium hydroxide) and incubated for 1 hour at 60° C. in a shaker incubator. The supernatant was then transferred to a 384 well plate. The absorbance was measured by spectrophotometric analysis at 405 nm with a micro plate reader (GEnios Pro, Tecan).
# The spectrophotometric optical density at 405 nm for untreated cells (no active) was considered as 100% melanin content. Relative melanin content for treated samples was calculated with normalization based on the untreated (media/vehicle) control.
# Human Keratinocytes [2] = test: Glutathione assay (total glutathione after menadione challenge); type: cell-based
# Protocol: Human Keratinocytes (Promocell, Heidelberg, Germany) were maintained in EpiLife® medium containing 60 uM calcium chloride and 1% Human Keratinocyte Growth Supplement (both media components from ThermoFisher Scientific) in a humidified incubator with an atmosphere containing 5% CO2 at 37° C. The medium was refreshed every 2-3 days. Subsequently, cells were trypsinized at 90% confluency and seeded at a density of 1×10^4 per well into 96-well plates with white wall and clear bottom. One or two days after seeding, cell medium was replaced with Hank's Balanced Salt Solution (HBSS), and keratinocytes were pre-treated with GAP (or 0.12-0.240 mM sodium hydroxide vehicle control, pH 7.5) alone or in combination with additional test reagents described above or L-cystine esters alone for 1-2 hours. The concentration of all amino acids constituting the GAP mixture used in this assay are designated in the data tables, and fully described in the abbreviations list below.
# After one or two hours of pre-treatment with GAP or additional test reagents, alone or in combination, keratinocytes were then challenged with 25 uM menadione (Sigma-Aldrich), a known inducer of oxidative stress. After 18-20 hours, cells were harvested and analyzed for total glutathione levels using a commercially available kit (GSH-GSSG GLo Assay, Promega), a luminescence-based system for the detection and quantification of total glutathione in cultured cells. In summary, after cell treatment, the media was removed and replaced with a cell lysis reagent for 5 minutes at 20-25° C.; note, all remaining steps were also conducted at 20-25° C. Next, a luciferase generation reagent was added to each well and incubated for 30 minutes. Following this step, a luciferin detection reagent was added to each well and plates were incubated for 15 minutes. Finally, plates were then read for luminescence in a FlexStation 3 plate reader (Molecular Devices). Total glutathione levels were calculated after interpolation of glutathione concentrations from a standard curve. Experimental conditions were typically conducted in at least triplicate determinations. Statistical significance was calculated using 1-way ANOVA. Percent protection was calculated by using the calculated glutathione levels from each experiment in the following equation: […]
# Human Keratinocytes [3] = test: Reactive Oxygen Species (ROS) assay; type: cell-based; settings: 18 hours; for activity at 20 µM / activity at 40 µM / activity at 80 µM / activity at 160 µM: Homo sapiens, Keratinocyte, read-out: ROS inhibition (% of vehicle control); for activity at 20 µM / ROS % Protection (improvement vs. vehicle control + menadione): 20 uM + menadione; for activity at 40 µM: 40 uM + menadione; for activity at 80 µM: 80 uM + menadione; for activity at 160 µM: 160 uM + menadione
# Protocol: Human Keratinocytes (Promocell, Heidelberg, Germany) were maintained in EpiLife® keratinocyte medium containing 60 uM calcium chloride and 1% Human Keratinocyte Growth Supplement (HKGS) in a humidified incubator with an atmosphere containing 5% CO2 at 37° C. The medium was refreshed every other day. Subsequently, cells were trypsinized at 90% confluency and seeded at a density of 1-2×10^4 per well into 96-well plates with black wall and clear bottom. On the second day after seeding, cell medium was replaced with Hank's Balanced Salt Solution (HBSS) with or without menadione (10-25 uM), GAP, GAP vehicle (0.2 mM NaOH, pH 7.5), above-described additional test reagents, or combinations of GAP with additional test reagents or L-cystine esters alone, and incubated for additional 18 hours. For ROS detection, CellROX green (Life Tech, Thermo Fisher Scientific, Rockford, USA) reagent was added into each well to a final concentration of 15-25 uM and incubated for additional 2-4 hours at 37° C. in a humidified incubator. The ROS fluorescence was detected using a Tecan microplate reader (Excitation/Emission=490/525). Relative ROS production was calculated with normalization based on the vehicle control treatment which was set to 100%. Where indicated, percent protection was calculated as a comparison to menadione alone treatment, using the measured relative fluorescent units in the following equation: […]
# ROS levels were evaluated together with cell viability because it is possible to get a false negative for ROS if treatment is so toxic, that at the time of assay, cells are dead (and there are no longer any detectable ROS). Decrease in ROS levels is meaningful if cells are still viable.
# Human Keratinocytes [4] = test: Cell viability assay (CCK-8); type: cell-based; settings: 18 hours; for viability at 20 µM / viability at 40 µM / viability at 80 µM / viability at 160 µM: Homo sapiens, Keratinocyte, read-out: Cell viability (% of vehicle control); for viability at 160 µM: 160 uM + menadione
# Protocol: Human Keratinocytes (Promocell, Heidelberg, Germany) were maintained in EpiLife® keratinocyte medium containing 60 uM calcium chloride and 1% Human Keratinocyte Growth Supplement (HKGS). The medium was refreshed every other day. Subsequently, cells were trypsinized at 90% confluency and seeded at a density of 2×10^4 per well into 96-well transparent tissue culture plates. On the second day after seeding, cell medium was replaced with treatments as described above in ROS assay section. After 18 hours, […] (CCK-8) reagent (Dojindo, Kumamoto, Japan) was diluted 1:10 in HBSS and incubated with cells for 4 h at 37° C. in a humidified incubator. Optical absorption at 450 nm was measured using a Tecan Safire2 plate reader. Relative viability was calculated with normalization based on the vehicle control treatment, which was set to 100%.
# Where indicated, percent protection was calculated as a comparison to menadione alone treatment, using the measured relative absorbance units in the following equation: […]
# [5] = pH less than 2 or pH above 8; cited from earlier work
SMILES,"Glutathione Synthesis, % Protection (improvement vs. vehicle control + menadione) (Human Keratinocytes [2]; 80 uM + menadione)",activity at 20 µM (Human Keratinocytes [3]),activity at 40 µM (Human Keratinocytes [3]),activity at 80 µM (Human Keratinocytes [3]),activity at 160 µM (Human Keratinocytes [3]),viability at 20 µM (Human Keratinocytes [4]; 20 uM + menadione),viability at 40 µM (Human Keratinocytes [4]; 40 uM + menadione),viability at 80 µM (Human Keratinocytes [4]; 80 uM + menadione),viability at 160 µM (Human Keratinocytes [4]),"Glutathione Synthesis, % Protection (improvement vs. vehicle control + menadione) (Human Keratinocytes [2]; 40 uM + menadione)","Glutathione Synthesis, Mean (μm glutathione) (Human Keratinocytes [2]; 40 uM + menadione)",ROS % Protection (improvement vs. vehicle control + menadione) (Human Keratinocytes [3]),further results
"CCCCCCC(O)CCCCCCCCCCC(=O)O (stereo not shown) [12-Hydroxystearic Acid, 12-hydroxystearic acid]",–,–,–,–,–,–,–,–,–,–,–,–,"inhibition at 4 µM ([1]; 12-Hydroxystearic Acid 4 uM, alone or with GAP): 7%; inhibition at 8 µM ([1]; 12-Hydroxystearic Acid 8 uM, alone or with GAP): 10%"
"COC(=O)[C@@H](N)CSSC[C@H](N)C(=O)OC.Cl.Cl [CDME, L-Cystine dimethyl ester dihydrochloride]","31^1,2%",108%,111%,114%,97.9%,90.9%,93.1%,87%,106%,–,–,–,–
"CCOC(=O)[C@@H](N)CSSC[C@H](N)C(=O)OCC.Cl.Cl [DEC, Diethyl L-cystinate dihydrochloride]",–,233%,212%,234%,254%,110%,127%,132%,122%,"13^1,2%","0.54^1,2 μm","38.0^1,2%",–
"CC(C)(C)OC(=O)[C@@H](N)CSSC[C@H](N)C(=O)OC(C)(C)C.Cl.Cl [DTBC, Ditert-butyl L-cystinate dihydrochloride]",1^1%,367%,324%,269%,221%,78.1%,75.9%,73.6%,104%,0^1%,0.17^1 μm,2.2%,"Glutathione Synthesis, Mean (μm glutathione) (Human Keratinocytes [2]; 80 uM + menadione): 0.19^1 μm; Cell viability % protection (improvement vs. vehicle control + menadione) (Human Keratinocytes [4]; 20 uM + menadione): 6.0^1%; Cell viability % protection (improvement vs. vehicle control + menadione) (Human Keratinocytes [4]; 40 uM + menadione): 3.0^1%; Cell viability % protection (improvement vs. vehicle control + menadione) (Human Keratinocytes [4]; 80 uM + menadione): −0.1^1%"
"CCCCCCc1ccc(O)cc1O [HR, 4-hexylresorcinol, reference compound]",–,–,–,–,–,–,–,–,–,–,–,–,inhibition at 10 µM ([1]; 10 uM): 39%
N[C@@H](CSSC[C@H](N)C(=O)O)C(=O)O [cystine],–,–,–,–,–,–,–,–,–,–,–,–,solubility in aqueous solutions [5]: more soluble

# From patent US20200009034A1, “TOPICAL SKIN LIGHTENING ADDITIVE AND COMPOSITION WITH AMINO ACIDS AND PPAR ACTIVATING FATTY ACIDS” (Conopco, Inc., d/b/a UNILEVER, priority 2017, published 2020)
